In patent publication US20240024287A1, “APPLICATION OF ANLE138B IN DRUG FOR IMPROVING DIET-INDUCED INSULIN RESISTANCE” (The First Affiliated Hospital of Shantou University Medical …, priority 2022, published 2024):
Several values for one entry are separate records, joined by “and”; a condition that tells them apart may be missing. Identical values can stand only once. Marks after values point to notes of the source that are not given here.

Legend:
[1] = tested on: high-fructose-induced rat insulin resistance models; experiment: High-fructose-induced rat insulin resistance model, therapeutic administration; type: in vivo
Text: (§1) 8-week-old male […] were selected as experimental animals. The rats were adaptively fed for 1 week after purchase, and then weighed for the fasting body weight. The healthy rats weighing 22-24 g were selected and randomly divided into groups according to the experimental flow design. (1) The rats were fed with normal feed and high-fructose feed for 8 weeks; (2) the rats were fed with high-fat feed for 12 weeks; (3) the rats were fed with high-fat feed for 8 weeks as a preventive experiment. Fasting body weights were measured and recorded regularly every week, and the rats were guaranteed to have free access to water and food during feeding. The food intake, water intake, and free movement of the model rats were continuously observed, and the rats with stunted growth, rough hair, and rickety posture after eating high-fructose and high-fat diets were screened out. In the experiment later, the rats were fed with normal feed or high-fructose/high-fat feed during the 2 weeks of intraperitoneal injection to ensure the consistency before and after administration.
(§2) Anle138b solutions: The drug doses required for 1 week of intervention for each group of rats were calculated, Anle138b drug concentrations of 1 mg/kg (0.01%), 3 mg/kg (0.03%) and 5 mg/kg (0.05%) were prepared, Anle138b powder was weighed and then added in 10% DMSO, 40% PEG300, 5% Tween-80 and 45% saline in sequence, each mixture was evenly blended by vortex into a clear solution, and each Anle138b solution was separately bottled according to the daily dose and stored in a refrigerator at 4° C.
L-THP solution: The drug dose required for 1 week of intervention for each group of rats was calculated, L-THP drug concentrations of 3 mg/kg (0.03%) was prepared, light yellow L-THP powder was weighed and then added in 10% DMSO, 40% PEG300, 5% Tween-80 and 45% saline in sequence, each mixture was evenly blended by vortex into a clear solution, and each Anle138b solution was separately bottled according to the daily dosage and stored in a refrigerator at 4° C.
(§3) The 8-week-old adult rats were modeled by changing the diets after 1 week of adaptive feeding. Blood was collected from the right orbital venous plexus with a glass tube at 8 weeks and 12 weeks after model establishment and after fasting (>12 h), and blood glucose levels were measured with a blood glucose tester (Sannuo GA-3); and the insulin resistance mode was judged by the subsequent determination of metabolic indexes, such as glucose tolerance test by intraperitoneal injection, fasting serum insulin (enzyme-linked immunosorbent assay, Raybiotech), serum triglyceride (GPO-PAP single-reagent microplate method, Nanjing Jiancheng) and cholesterol ([…] single-reagent microplate method, Nanjing Jiancheng).
The rats were fed with 60% high-fructose diet for 8 weeks to establish insulin resistance models, and the rats fed with normal diet provided by the animal room of Shantou University Medical College were used as controls. After fasting, orbital blood was collected, and fasting blood glucose, serum insulin, glucose tolerance were determined to judge whether the modeling was successful. According to an insulin resistance index (HOMA-IR) as the core judgment index, the successfully modeled rats were enrolled by screening the IR index of >3 and randomly divided into groups to explore the influence of different concentrations of Anle138b on the rat insulin resistance models. The concentration gradients for different groups were 0 mg/kg (injection solvent, namely the model control group), 1 mg/kg, 3 mg/kg and 5 mg/kg clear Anle138b solution, as well as the L-THP 3 mg/kg positive drug control group. The rats were administrated by intraperitoneal injection for 2 weeks continuously, once a day.
The insulin resistance value was calculated in combination with the method for calculating the insulin resistance index (HOMA-IR) in the homeostasis model assessment method. […]

normal rats = experiment: Normal rats given Anle138b (normal drug / drug control group); type: in vivo; conditions: 3 mg/kg i.p., 2 weeks
Text: as §1, §2, §3
(1) The normal rats were randomly divided into two groups: blank control group (n=6) and drug control group (n=7); the rats in the normal control group were intraperitoneally injected with a similar volume of solvent and Anle138b (3 mg/kg, 0.03%) according to the body weight for 2 weeks.

[2] = tested on: high-fat-induced rat insulin resistance models; experiment: High-fat-induced rat insulin resistance model, therapeutic administration; type: in vivo
Text: as §1
(§4) A total energy-to-mass ratio was 4.73 kcal/g. The feed was provided by Beijing Huafukang Biotechnology Co., Ltd.
as §2, §3
The rat IR models were randomly divided into two groups, the rats were administrated with Anle138b 3 mg/kg (n=6, 0.03%) and 5 mg/kg (n=6, 0.05%) for 2 weeks continuously, once a day.
After the models were determined to be successful, the average value of food intake of each rat in the first two days was taken as its own food intake base. After the drug intervention, the daily food intake and body weight were measured and compared with their own bases for comparison of the standardized food intake and body weight of each rat. […]

[3] = tested on: high-fat-induced rat insulin resistance model; experiment: High-fat-induced rat insulin resistance model, preventive administration; type: in vivo, C57BL/6J rats; conditions: high-fat diet, preventive 5 mg/kg
Text: as §1, §4, §2, §3
Rats fed with high-fat diet for 5 weeks were randomly divided into high-fat feeding control group (n=6) and drug intervention group with Anle138b 5 mg/kg, and the rats were administered for 3 weeks continuously, once every two days.

[4] = tested on: high-fat-induced rat insulin resistance models; experiment: Anle138b treatment versus paired-feed (PF) group in high-fat rat insulin resistance models; type: in vivo; conditions: high-fat model, 5 mg/kg, compared with PF group
Experimental: The rats fed with high-fat diet for 8 weeks were divided into paired-feed group (n=7) (the food intake was the same as that of high-fat Anle138b 5 mg/kg/d) and control group continuously fed with high-fat diet.
Pair-feed (PF) group: the pair-feed group was set according to the daily food intake in the high-fat group after intervention with Anle138b 5 mg/kg, the rats were given the same amount of high-fat diet every day, and the changes in the body weight and the metabolic indexes were measured.

[5] = 1 mg/kg i.p. once a day, 2 weeks
[6] = 3 mg/kg i.p. once a day, 2 weeks
[7] = 5 mg/kg i.p. once a day, 2 weeks
[8] = 2 weeks, with increase of drug concentration
[9] = 3 mg/kg/d, 2 weeks, 3 mg/kg/day
[10] = 5 mg/kg/d, 2 weeks, 5 mg/kg/day

Brc1cccc(-c2cc(-c3ccc4c(c3)OCO4)[nH]n2)c1 [Anle138b]
Body Weight After Administration [1, 5]: 25.58 ± 1.555* * g | Fasting Blood Glucose [1, 5]: 5.100 ± 0.65 # mmol/L | Fasting Insulin [1, 5]: 48.97 ± 1.38 μIU/mL | HOMA-IR [1, 5]: 11.3 ± 1.78 μIU/mL*mmol/L | Glucose tolerance test area under curve (AUC) ([1]; 1 mg/kg i.p., 2 weeks): 1,307±46.38 min*mmol/L | Right epididymal fat weight index (fat weight/fasting body weight) ([1]; 1 mg/kg i.p., 2 weeks): 0.008918±0.0003788 | Body Weight After Administration [1, 6]: 25.51 ± 0.8009 g | Fasting Blood Glucose [1, 6]: 5.300 ± 0.89 mmol/L | Fasting Insulin [1, 6]: 21.46 ± 10.36 # μIU/mL | HOMA-IR [1, 6]: 5.438 ± +2.13 # μIU/mL*mmol/L | Right epididymal fat weight index (fat weight/fasting body weight) ([1]; 3 mg/kg i.p., 2 weeks): 0.007657±0.002366 | Body Weight After Administration [1, 7]: 24.25 ± +2.652 g | Fasting Blood Glucose [1, 7]: 4.675 ± 0.95 # mmol/L | Fasting Insulin [1, 7]: 25.74 ± 12.24 # μIU/mL | HOMA-IR [1, 7]: 5.827 ± 3.78 # μIU/mL*mmol/L | Glucose tolerance test area under curve (AUC) ([1]; 5 mg/kg i.p., 2 weeks): 1,261±103.2 min*mmol/L | Right epididymal fat weight index (fat weight/fasting body weight) ([1]; 5 mg/kg i.p., 2 weeks): 0.007971±0.00142 | Epididymal adipose tissue pathomorphism, HE staining [1, 8]: the adipocytes were reduced in sizes and arranged regularly | Liver pathomorphism, HE staining ([1]; different concentrations, dose-dependent): the hepatic steatosis was significantly alleviated | Body Weight After Administration (normal rats): 25.65 ± 0.7842 g | Fasting Blood Glucose (normal rats): 3.650 ± 0.33 mmol/L | Fasting Insulin (normal rats; 3 mg/kg): 15.08±13.14 μIU/mL | HOMA-IR (normal rats; 3 mg/kg): 1.1689±1.153 μIU/mL*mmol/L and 1.1689 ± 1.15 μIU/mL*mmol/L | Fat weight index ([2]; 3 mg/kg): 0.01317±0.004212 | Feeding efficiency (daily body weight change/energy consumption) ([2]; 3 mg/kg): −0.007788±0.01949 g/calories/rat/day | Glucose tolerance test area under curve (AUC) ([2]; 3 mg/kg): 1,203±155.6 min*mmol/L | Liver weight index ([2]; 3 mg/kg): 0.04475±0.003 | Liver pathomorphism, HE staining ([2]; 3 mg/kg and 5 mg/kg): the hepatic steatosis was significantly alleviated | Pancreas pathomorphism, HE staining ([2]; 3 mg/kg and 5 mg/kg, as the dose increases): the acinar steatosis was significantly alleviated | Average daily food intake ([2]; 3 mg/kg once a day, 2 weeks): 1.946 ± 0.4777 g/day | Body weight after intervention ([2]; 3 mg/kg once a day, 2 weeks): 28.97 ± 1.657 g | Fasting Blood Glucose [2, 9]: 5.283 ± 0.74 mmol/L | Fasting Insulin [2, 9]: 55.24±28.94 μIU/mL | Insulin Resistance Index [2, 9]: 11.6±5.044 μIU/mL*mmol/L and 11.6 ± 5.04 μIU/mL*mmol/L | Triglyceride [2, 9]: 0.5138 ± 0.06 mmol/L | Fat weight index ([2]; 5 mg/kg): decreased | Feeding efficiency (daily body weight change/energy consumption) ([2]; 5 mg/kg): −0.01528±0.01287 g/calories/rat/day | Glucose tolerance test area under curve (AUC) ([2]; 5 mg/kg): 1,059±153.2 min*mmol/L | Liver weight index ([2]; 5 mg/kg): 0.04344±0.0026 | Body weight after intervention ([2]; 5 mg/kg once a day, 2 weeks): 28.9 ± 1.685 g | Average daily food intake ([2]; 5 mg/kg once a day, 2 weeks, P<0.001): significantly lower than that of the model group | Fasting Blood Glucose [2, 10]: 4.867 ± 0.36 mmol/L | Fasting Insulin [2, 10]: 36.27±16.53 μIU/mL | Insulin Resistance Index [2, 10]: 8.446±3.617 μIU/mL*mmol/L and 8.446 ± 3.62 μIU/mL*mmol/L | Triglyceride [2, 10]: 0.5164 ± 0.06 mmol/L | Epididymal adipose tissue pathomorphism, HE staining [2, 8]: the adipocytes were reduced in sizes and arranged regularly | Skeletal muscle pathomorphism, HE staining ([2]; drug intervention 2 weeks): the intermuscular steatosis was relieved | Adipose tissue pathomorphism, HE staining [3]: relieved the structural disorder of the adipose tissue | Daily feeding efficiency [3]: −0.03518±0.02726 | Fasting Blood Glucose [3]: 6.313 ± 0.63 mmol/L | Fasting Insulin [3]: 22.09±6.49 μIU/mL | Fat weight index [3]: 0.01195±0.003 | Glucose tolerance test area under curve (AUC) [3]: 1,269±74 min*mmol/L | Insulin Resistance Index [3]: 6.880±2.73 μIU/mL*mmol/L | Liver weight index [3]: 0.03763±0.001 | Pancreas pathomorphism, HE staining [3]: significantly inhibit the steatosis of pancreatic acinar cells | Total Cholesterol [3]: 3.383 ± 0.21 mmol/L | Triglyceride [3]: 0.4687 ± 0.05 mmol/L | Body weight at end point of prevention experiment ([3]; 3 weeks, once every two days): 25.8 ± 0.67 g | Food intake ([3]; 3 weeks, once every two days): 1.805±0.19 g/rat | Average body weight [4]: 28.23 ± 0.66 g | Fasting Blood Glucose [4]: 4.87 ± 0.36 mmol/L | Feeding efficiency [4]: −0.015±0.013 | Triglyceride [4]: 0.52 ± 0.06 mmol/L

COc1cc2c(cc1OC)[C@@H]1Cc3ccc(OC)c(OC)c3CN1CC2 [L-THP, reference compound]
Body Weight After Administration [1, 6]: 24.24 ± 1.255 g | Fasting Blood Glucose [1, 6]: 4.967 ± 0.39 # mmol/L | Fasting Insulin [1, 6]: 24.76 ± 9.70 # # μIU/mL | HOMA-IR [1, 6]: 6.029 ± 3.33 # μIU/mL*mmol/L | Right epididymal fat weight index (fat weight/fasting body weight) ([1]; 3 mg/kg i.p., 2 weeks): 0.00751±0.002279
